Laboratory results published in patent US11440939B2, “Anticancer peptides” (IDP DISCOVERY PHARMA, S.L., priority 2017, dated 2022).
Numbered stars: 1 amine (or outer) side, 2 acyl side, 3 side chain; on linkers, the order of the positions; unused ones are H or OH. Bridge positions count the residues as written; N and C are the ends. Square brackets hold non-standard residues; d marks the D form. Peptide text beside a SMILES is read from it. ξ: configuration not given here. ξαMeNle(6-ylidene) = CC(CCCC=[*:3])(N[*:1])C(=O)[*:2]; X1 = CC(CCCCCCC=[*:3])(N[*:1])C(=O)[*:2]; R8 = C=CCCCCCC[C@@](C)(N)C(=O)O; S5 = C=CCCC[C@](C)(N)C(=O)O

Key:
NCI-H526 = settings: 72 h
Description: NCI-H526, epithelial (small cell lung cancer, SCLC), ATCC-CRL-5811;
During the amplification step and the assays, adherent cells were rinsed with DPBS (Dulbecco's Phosphate Buffered Saline, Sigma D1283) three times and afterward treated for 5 minutes with trypsin ([0.5 g/ml]/EDTA [0.2 g/ml]) (Gibco-BRL, 15400054) in solution of DPBS at 37° C., and, once detached, transferred in the culturing medium. No-adherent cells were centrifuged and transferred in the culturing medium. Cells were counted in a Neubauer chamber after labelling with Tripan-Blue. […]
MTT: 1. […] Absorbance at 570 nm was finally measured. […]

NCI-H524 = format: cell-based; settings: 72 h
Description: NCI-H524, lung (small cell lung cancer, SCLC), ATCC-CRL-5831;
(§1) Cell line MCF-7 was cultured in incubator under CO2 (6%) at 37° C. in DMEM high glucose (Dulbecco's Modified Eagle Solution, Gibco-BRL 31966-21) medium with 10% fetal bovine serum inactivated (FBS) (Gibco-BRL 10106-169). Cell lines HL-60, NCI-H524, NCI-H526, NCI-H69, NCI-H82, NCI-H187 and H5B were cultured in an incubator at 37° C. in RPMI-1640 (Sigma R8758) medium with 10% of fetal bovine serum inactivated (FBS) and 2 mM glutamine (Sigma G7513). Cell line NCI-H510A was cultured in incubator in F12K medium with 10% of fetal bovine serum inactivated (FBS). Cell line GBM-18 and GBM-27 were cultured in incubator under CO2 (6%) at 37° C. in complete medium (Neurobasal+B27+Glutamax+Growth factors).
During the amplification step and the assays, adherent cells were rinsed with DPBS (Dulbecco's Phosphate Buffered Saline, Sigma D1283) three times and afterward treated for 5 minutes with trypsin ([…]) (Gibco-BRL, 15400054) in solution of DPBS at 37° C., and, once detached, transferred in the culturing medium. No-adherent cells were centrifuged and transferred in the culturing medium. Cells were counted in a Neubauer chamber after labelling with Tripan-Blue. […]
(§2) Cells were incubated during 72 h in incubator under CO2 atmosphere at 37° C. Cell viability was measured by means of MTT (3-(4,5-dimethylthiazol-2-yl)-2,5-diphenyltetrazolium bromide) assay, Alamar Blue® (Biosource DAL1100) and Hexosaminidase activity test, consecutively, following manufacturer instructions.
MTT: 1. […] Absorbance at 570 nm was finally measured.
Alamar Blue: 10 μl Alamar Blue solution was added to each well and the plates were incubated for […] in the incubator. Fluorescence ratio at 535/590 (excitation/emission) was measured in Cytofluor (Millipore) fluorimeter. Blank control was determined by lysis of untreated cells with con 2% of Triton X100, right before adding Alamar Blue solution. […]

NCI-H82 = format: cell-based; settings: 72 h
Description: NCI-H82, epithelial (small cell lung cancer, SCLC), ATCC-CRL-5811;
as §1
(§3) During the amplification step and the assays, adherent cells were rinsed with DPBS (Dulbecco's Phosphate Buffered Saline, Sigma D1283) three times and afterward treated for 5 minutes with trypsin ([…]) (Gibco-BRL, 15400054) in solution of DPBS at 37° C., and, once detached, transferred in the culturing medium. No-adherent cells were centrifuged and transferred in the culturing medium. Cells were counted in a Neubauer chamber after labelling with Tripan-Blue.
(§4) MCF-7, NCI-H187, NCI-H69, NCI-H526 and H5B cells were seeded at a density of 5000 cells/well; NCI-H524 and NCI-H82 were seeded at a density of 2500 cells/well; HL-60 and NCI-H510A at 10000 cells/well in 100 μl of medium in 96 well plates. After 24 h, the compounds to be tested were added to calculate the dose/response curve at the starting concentration of 100 μM with serial dilutions (1:1). Controls were the untreated cells. Each experiment was performed in triplicate.
as §2
(§5) MTT: 1. Stock solution of MTT (475989 Calbiochem) was 5 mg/ml in PBS 1×. As negative control (experiment noise) 3 wells were treated with 20 μl/well of a solution of SDS 10% in H2O. The same control was used for Alamar Blue/Hexosaminidase. 10 μl/well of MTT solution were added and the plate was incubated for 3-4 hr. The medium was discarded and 100 μl of extracting buffer (PBS 1×, 15% SDS, 50% […] N,N-Dimethylformamide, pH 4,7) were added to each well. Plates were incubated for 16 h at room temperature under orbital shaking. Absorbance at 570 nm was finally measured.
(§6) Alamar Blue: 10 μl Alamar Blue solution was added to each well and the plates were incubated for […] in the incubator. Fluorescence ratio at 535/590 (excitation/emission) was measured in Cytofluor (Millipore) fluorimeter. Blank control was determined by lysis of untreated cells with con 2% of Triton X100, right before adding Alamar Blue solution.
(§7) Hexosaminidase activity test: after Alamar Blue lecture, medium was discarded and plates were rinsed once with PBS. 60 μl hexosaminidase substrate (p-nitrophenol-N-acetyl-beta-D-glucosamide 7.5 mM [Sigma N-9376], sodium citrate 0.1 M, pH 5.0, 0.25% Triton X-100) was added to each well and the plates were incubated at 37° C. for 2-5 h, according to the cell type (hexosaminidase activity changes according to the cell type). […] Blank control was the same as described before.
(§8) Data analysis was performed calculating the percentage of cell viability normalized vs. the values of negative control, which was considered equal to 100%. The dose/response curve was fitted through the sigmoidal equation dose-response (variable slope) and the EC50 values were calculated as follow: Y=Bottom+(Top−Bottom)/(1+10^{[(Log EC50−X)*HillSlope]},

NCI-H187 = format: cell-based; settings: 72 h
Description: NCI-H187, epithelial (small cell lung cancer, SCLC), ATCC-CRL-5804;
as §1, §3, §4, §2, §5, §6, §7, §8

cancer cell lines = test: Inhibition of cancer cell proliferation, general statements; format: cell-based
Description: as §4, §2, §8

NCI-H510A = format: cell-based; settings: 72 h
Description: (§9) NCI-510A, epithelial (small cell lung cancer, SCLC), ATCC-HBT-124; and Hepatocytes (normal liver), from a donor was provided by Foundation DTI-Donation & Transplantation Institute from surgical wastes and from organs not suitable for transplantation
as §1, §3, §4, §2, §5, §6, §7, §8

Human hepatocytes = test: Hepatotoxicity assay, trypan blue exclusion, 24 h; format: cell-based; settings: human hepatocytes, 0.5% SDS
From the text: as §9
Human liver from a donor was subjected to hepatocyte isolation by using a two-step tissue microperfusion technique taking maximum care to avoid anoxia before cannulation, since hepatocytes are cells highly sensitive to oxygen levels. An initial anoxic state could result in a low viability of the cells, and will later affect their metabolic capacity in the culture. Briefly, liver tissue was cannulated by using the accessible vessels with a 1 mm-diameter needle. A balanced salt solution was injected to clean the organ by using a peristaltic pump adjusted to a flow rate of 18-20 ml/min. After washing, a solution containing collagenase was added for liver disintegration. The cell suspension obtained using this process was filtered and centrifuged and, after a couple of washings to remove collagenase, cells were re-suspended in culture medium Ham's F-12/William (1:1) medium supplemented with 2 mM glutamine, […] sodium selenite, 2% newborn calf serum, 50 mU/ml penicillin, 50 μg/ml streptomycin, 0.1% bovine serum albumin, 1.68 mM NAME, 26 mM sodium bicarbonate, 25 μg/ml transferrin, 65.5 μM ethanolamine, 7.2 μM linoleic acid, 17.5 mM glucose, 6.14 mM ascorbic acid and 10 nM insulin.
After resuspension, a cell aliquot was removed and viability was determined by cell counting using the trypan blue exclusion method. Trypan blue uptake is the result of cell membrane alteration and in consequence of cell death. Thus, to quantify cell viability, 0.4% trypan blue in saline was added to the cells and these were immediately loaded in a Neubauer chamber. Viable cells were counted in 5 different fields under the optical microscope as non-blue cells. % Viability=Number of non-blue cells×100/Number of total cells Viability and Hepatoxicity Assay
Human hepatocytes isolated and re-suspended as described before were seeded at 100,000 viable cells/well on 96 collagen-coated plates in order to assess compound's cytotoxicity. After 1 hour in culture, medium was renewed to eliminate cell debris. Cultured human hepatocytes were allowed to stay in culture for 24 hours prior performing the experiments. After 24 h, the compounds to be tested were added to calculate the dose/response curve at the starting concentration of 400 μM with serial dilutions. Each experiment was performed in triplicate. Cells were incubated during 24 h in incubator under CO2 atmosphere at 37° C.
The viability was determined by cell counting using the trypan blue exclusion method. % Viability=Number of non-blue cells×100/Number of total cells Statistics

SMILES	EC50 (NCI-H526) [µM]	EC50 (NCI-H524) [µM]	EC50 (NCI-H82) [µM]	EC50 (NCI-H187) [µM]	EC50 (NCI-H510A) [µM]	inhibition of cancer cell proliferation (in words) (cancer cell lines)	% Viability (Human hepatocytes) [%]
CC(C)C[C@H](NC(=O)[C@H](CCCCN)NC(=O)[C@@H](NC(=O)[C@@H](N)CCCNC(=N)N)C(C)C)C(=O)N[C@H](C(=O)N[C@@H](CCC(N)=O)C(=O)N[C@@H](CC(C)C)C(=O)NC1(C)CCCCCCC=CCCCC(C)(C(=O)N[C@H](C(=O)N2CCC[C@H]2C(N)=O)C(C)C)NC(=O)[C@H](CCC(=O)O)NC(=O)[C@H](CCCNC(=N)N)NC(=O)[C@H](CC(C)C)NC(=O)[C@H]([C@@H](C)O)NC(=O)[C@H](C)NC(=O)[C@H](Cc2ccccc2)NC1=O)C(C)C (stereo partly drawn) [IDP-H14-Q6] (H-RVKLVQL[X1]FATLRE[ξαMeNle(6-ylidene)]VP-NH2; staple 8-15; N-terminus and C-terminus assumed)	–	–	~7.5	~7.5	~12.5	active	–
CC(C)C[C@H](NC(=O)[C@H](CCCCN)NC(=O)[C@@H](NC(=O)[C@@H](N)CCCNC(=N)N)C(C)C)C(=O)N[C@H](C(=O)N[C@@H](CC(N)=O)C(=O)N[C@@H](CC(C)C)C(=O)NC1(C)CCCCCCC=CCCCC(C)(C(=O)N[C@H](C(=O)N2CCC[C@H]2C(N)=O)C(C)C)NC(=O)[C@H](CCC(N)=O)NC(=O)[C@H](CCCNC(=N)N)NC(=O)[C@H](CC(C)C)NC(=O)[C@H]([C@@H](C)O)NC(=O)[C@H](C)NC(=O)[C@H](Cc2ccccc2)NC1=O)C(C)C (stereo partly drawn) [IDP-H14-Q13] (H-RVKLVNL[X1]FATLRQ[ξαMeNle(6-ylidene)]VP-NH2; staple 8-15; N-terminus and C-terminus assumed)	–	–	~7.5	~7.5	~12.5	active	–
CC(C)C[C@H](NC(=O)[C@H](CCCCN)NC(=O)[C@@H](NC(=O)[C@@H](N)CCCNC(=N)N)C(C)C)C(=O)N[C@H](C(=O)N[C@@H](CC(N)=O)C(=O)N[C@@H](CC(C)C)C(=O)NC1(C)CCCCCCC=CCCCC(C)(C(=O)N[C@H](C(=O)N[C@@H](CO)C(N)=O)C(C)C)NC(=O)[C@H](CCC(=O)O)NC(=O)[C@H](CCCNC(=N)N)NC(=O)[C@H](CC(C)C)NC(=O)[C@H]([C@@H](C)O)NC(=O)[C@H](C)NC(=O)[C@H](Cc2ccccc2)NC1=O)C(C)C (stereo partly drawn) [IDP-H14-S15] (H-RVKLVNL[X1]FATLRE[ξαMeNle(6-ylidene)]VS-NH2; staple 8-15; N-terminus and C-terminus assumed)	–	–	~7.5	~7.5	~7.5	active	–
CCCCCCCCCCCCOS(=O)(=O)[O-].[Na+] [SDS, reference compound]	–	–	–	–	–	–	13.6

Second part, led by results:

EC50 (NCI-H526) [µM]	EC50 (NCI-H524) [µM]	EC50 (NCI-H82) [µM]	EC50 (NCI-H187) [µM]	EC50 (NCI-H510A) [µM]	SMILES	inhibition of cancer cell proliferation (in words) (cancer cell lines)	% Viability (Human hepatocytes) [%]
~10	~15	–	–	–	CC(C)C[C@@H]1NC(=O)[C@H](CC(N)=O)NC(=O)[C@H](C(C)C)NC(=O)C(C)(NC(=O)[C@H](CCCCN)NC(=O)[C@@H](NC(=O)[C@H](CCCNC(=N)N)NC(=O)[C@H](CC(N)=O)NC(=O)[C@@H](N)CCCNC(=N)N)C(C)C)CCCC=CCCCC(C)(C(=O)N[C@@H](Cc2ccccc2)C(=O)N[C@@H](C)C(=O)N[C@H](C(=O)N[C@@H](CC(C)C)C(=O)N[C@@H](CCCNC(=N)N)C(=O)N[C@@H](CCC(=O)O)C(=O)N[C@@H](Cc2c[nH]cn2)C(N)=O)[C@@H](C)O)NC1=O (stereo partly drawn) [H02] (H-RNRVK[ξαMeNle(6-ylidene)]VNL[ξαMeNle(6-ylidene)]FATLREH-NH2; staple 6-10; N-terminus and C-terminus assumed)	–	–
~11	~9	–	–	–	CC(C)C[C@H](NC(=O)[C@H](CCCCN)NC(=O)[C@@H](NC(=O)[C@H](CCCNC(=N)N)NC(=O)[C@H](CC(N)=O)NC(=O)[C@@H](N)CCCNC(=N)N)C(C)C)C(=O)N[C@H](C(=O)N[C@@H](CC(N)=O)C(=O)N[C@@H](CC(C)C)C(=O)N[C@]1(C)CCCCCCC=CCCC[C@@](C)(C(N)=O)NC(=O)[C@H](CCC(=O)O)NC(=O)[C@H](CCCNC(=N)N)NC(=O)[C@H](CC(C)C)NC(=O)[C@H]([C@@H](C)O)NC(=O)[C@H](C)NC(=O)[C@H](Cc2ccccc2)NC1=O)C(C)C [H04] (H-RNRVKLVNL[R8]FATLRE[S5]-NH2; staple 10-17; N-terminus and C-terminus assumed)	–	–
–	–	~7.5	~7.5	~7.5	CC(C)C[C@H](NC(=O)[C@H](CCCCN)NC(=O)[C@@H](NC(=O)[C@@H](N)CCCNC(=N)N)C(C)C)C(=O)N[C@H](C(=O)N[C@@H](CC(N)=O)C(=O)N[C@@H](CC(C)C)C(=O)NC1(C)CCCCCCC=CCCCC(C)(C(=O)N[C@H](C(=O)N[C@@H](CCC(N)=O)C(N)=O)C(C)C)NC(=O)[C@H](CCC(=O)O)NC(=O)[C@H](CCCNC(=N)N)NC(=O)[C@H](CC(C)C)NC(=O)[C@H]([C@@H](C)O)NC(=O)[C@H](C)NC(=O)[C@H](Cc2ccccc2)NC1=O)C(C)C (stereo partly drawn) [IDP-H14-Q15] (H-RVKLVNL[X1]FATLRE[ξαMeNle(6-ylidene)]VQ-NH2; staple 8-15; N-terminus and C-terminus assumed)	active	–
